Experimental data as given in patent publication US20190224260A1, “Metabolic Syndrome Inhibitor” (J-OIL MILLS, INC., priority 2016, published 2019).

Tested on: rat primary visceral fat cells
Assay: Cell test: fat droplet area (Oil Red O staining) in visceral fat cells
Format: cell-based
Settings: test solution in DMSO diluted 1000-fold with medium; cultured 2+2 days; vs control group (DMSO); FIG. 15, p 0.01 or less
Experimental: 100 μL of dimethylsulfoxide (DMSO) was added to 4.147 mg of unsaponifiable matter, or 259.65 μL of dimethylsulfoxide (DMSO) was added to 1.0716 mg of the avenasterol fraction, and which was sonicated for 1 minute to obtain a test solution. The test solution of the unsaponifiable matter (avenasterol concentration: 1.41 mg/ml) was referred to as an unsaponifiable matter group, and the test solution of the avenasterol (avenasterol concentration: 3.60 mg/ml) was referred to as an avenasterol fraction group. Furthermore, a DMSO without the unsaponifiable matter nor the avenasterol fraction (control group) was prepared. Each test solution in each group was diluted 1000-fold with a medium described in the following “Cell test”, and sonicated for 1 minute to obtain a medium with the test solution. […]
The medium was removed, and the inside of the well was washed with 0.5 mL of phosphate buffered saline (PBS). […] The cells were microscopically observed at a magnification of 200 times, and visceral fat cells with stained fat droplets were recorded as images on a recording device of a computer.
Area values of the lipid droplets stained with the Oil Red O on the above-described images were measured using the image processing software ImageJ (1.48 v) (obtained from https://imagej.nih.gov/ij/). The cell test was carried out three times, and four images were recorded in each group for each cell test. […]

Avenasterol
fat accumulation in the fat cell (relative area value of fat droplets): significantly inhibited
